{"source": "patent US20130337020A1", "about": "“Pharmaceutical Compositions” (Alpharma Pharmaceuticals LLC, priority 2006, published 2013)", "data": [{"tested_on": "not given", "details": "in comparison to a 15 mg dose of hydrocodone", "units": {"Equianalgesic Doses of Opioids, Calculated Dose": "mg"}, "values": [{"compound": "CN1CC[C@]23CCCC[C@H]2[C@H]1Cc1ccc(O)cc13", "note": "[Levorphanol]", "Equianalgesic Doses of Opioids, Calculated Dose": 1.8}, {"compound": "Meperidine", "Equianalgesic Doses of Opioids, Calculated Dose": 135.0}, {"compound": "COc1ccc2c3c1OC1C(=O)CC[C@H]4[C@@H](C2)N(C)CC[C@]314", "note": "(stereo partly shown) [Hydrocodone, 4,5-epoxy-3-methoxy-17-methylmorphinan-6-one]", "Equianalgesic Doses of Opioids, Calculated Dose": 15.0}, {"compound": "CCC(=O)C(CC(C)N(C)C)(c1ccccc1)c1ccccc1", "note": "(stereo not shown) [Methadone]", "Equianalgesic Doses of Opioids, Calculated Dose": 9.0}, {"compound": "COc1ccc2c3c1O[C@H]1[C@@H](O)C=C[C@H]4[C@@H](C2)N(C)CC[C@@]341", "note": "[Codeine]", "Equianalgesic Doses of Opioids, Calculated Dose": 90.0}, {"compound": "COc1ccc2c3c1OC1C(=O)CC[C@@]4(O)[C@@H](C2)N(C)CC[C@]314", "note": "(stereo partly shown) [Oxycodone, 4,5-epoxy-14-hydroxy-3-methoxy-17-methylmorphinan-6-one]", "Equianalgesic Doses of Opioids, Calculated Dose": 13.5}]}, {"tested_on": "opioid receptors", "details": "cited from earlier work", "units": {"antagonist potency relative to naltrexone": "%"}, "values": [{"compound": "Oc1ccc2c3c1O[C@H]1[C@H](O)CC[C@@]4(O)[C@@H](C2)N(CC2CC2)CC[C@]314", "note": "[6-β-naltrexol]", "antagonist potency relative to naltrexone": "2 to 4"}]}]}
